What was measured:
Type in all cases: in vivo
[1] = system: hard to kill broad leaf weeds; assay: Field efficacy, summary on broad leaf weeds
Experimental: (§1) As described in the Herbicide Handbook of the Weed Science Society of America, Ninth Edition, 2007, p. 429, “synergism” [is] an interaction of two or more factors such that the effect when combined is greater than the predicted effect based on the response to each factor applied separately. In the Colby method, the expected (or predicted) response of a combination of herbicides is calculated by taking the product of the observed response for each individual component of the combination when applied alone divided by 100 and subtracting this value from the sum of the observed response for each component while applied alone. An unexpected enhancement in efficacy of the combination is then determined by comparing the observed response of the combination to the expected (or predicted) response as calculated from the observed response of each individual component alone. If the observed response of the combination is greater than the expected (or predicted) response, or stated conversely, if the difference between the observed and expected response is greater than zero, then the combination is said to be synergistic or unexpectedly effective. (Colby, S. R., Weeds, 1967(15), p. 20-22). The Colby method required only a single dose of each herbicide applied alone and the mixture of both doses.
(§2) EFFICACY STUDY: The field experiments were carried out to test the synergy of the combination Metamifop, Imazethapyr, and Imazamox in India at various locations like in MP, Maharashtra, Karnataka, and Telangana on farmer's field against soybean weeds during Kharif season. The experiment comprising of 15 treatments including premixed binary and ternary combinations along with their stand-alone molecule using a randomized block design replicated thrice. All the treatments were applied as post-emergence foliar application when the weeds reached to two to four leaf stage. The spray was conducted with the help of Battery-operated Knapsack sprayer. The percentage efficacy was calculated after 14 and 21 days after application of herbicides.

Soybean = assay: Phytotoxicity in Soybean, visual grading on 0-10 scale; settings: Soybean
Experimental: as §2
Phytotoxic effect of herbicidal combination of Metamifop, Imazethapyr and Imazamox in soyabean: Table 5, 10 show the visual observations and grading on phytotoxicity which was recorded for leaf injury on tip/surface, Epinasty/Hyponasty, and wilting etc. on 0-10 scale (as below) at 1, 3, 7, 14 and 21 days after application of the present herbicidal composition.

Parthenium hysterophorus = assay: Field efficacy on broad leaf weed in soybean, post-emergence foliar application
Experimental: as §1
(§3) Synergy Study: The following formula was used to calculate the expected activity of mixtures containing active ingredients, A and B:
(§4) • A=Observed efficacy of active ingredient (combination of Metamifop and Imidazolinone herbicides) A at the same concentration as used in the mixture. • B=observed efficacy of active ingredient B at the same concentration as used in the mixture. However, following formula was used to calculate the expected activity of mixtures containing three active ingredients, A, B and C:
(§5) • A=observed efficacy of active ingredient (combination of Metamifop and Imidazolinone herbicides) A at the same concentration as used in the mixture. • B=observed efficacy of active ingredient B at the same concentration as used in the mixture. • C=observed efficacy of active ingredient C at the same concentration as used in the mixture.
as §2
(§6) The weeds present in the experimental fields were echinochloa conola, echinochloa crusgalli, brachiaria euriciformis, rottboellia cochinchinensis, cynodon dactylon, parthenium hyterophorus, digera arvensis, cynotis axillaris, acalypha indica, Commelina benghalensis, celosia argentia, cyperus spp.

Commelina benghalensis = assay: as above
Experimental: as §1, §3, §4, §5, §2, §6

Cyanotis axillaris = assay: as above
Experimental: as §1, §3, §4, §5, §2, §6

Brachiaria eruciformis = assay: Field efficacy on grass weed in soybean, post-emergence foliar application
Experimental: as §1, §3, §4, §5, §2, §6

Echinochloa crusgalli = assay: as above
Experimental: as §1, §3, §4, §5, §2, §6

[2] = system: Rottboellia cochinchinensis; assay: as above
Experimental: as §1, §3, §4, §5, §2, §6

C[C@@H](Oc1ccc(Oc2nc3ccc(Cl)cc3o2)cc1)C(=O)N(C)c1ccccc1F [Metamifop]
Control on targeted weeds, applied alone ([1]; at 14 days): no or very less control | Control on targeted weeds, applied alone ([1]; at 21 days): no or very less control | Phytotoxicity score (Soybean; 1 DAA, Metamifop 80 gm ai/ha): 0 | Phytotoxicity score (Soybean; 1 DAA, Metamifop 90 gm ai/ha): 0 | Phytotoxicity score (Soybean; 3 DAA, Metamifop 80 gm ai/ha): 0 | Phytotoxicity score (Soybean; 3 DAA, Metamifop 90 gm ai/ha): 0 | Phytotoxicity score (Soybean; 7 DAA, Metamifop 80 gm ai/ha): 0 | Phytotoxicity score (Soybean; 7 DAA, Metamifop 90 gm ai/ha): 0 | Phytotoxicity score (Soybean; 14 DAA, Metamifop 80 gm ai/ha): 0 | Phytotoxicity score (Soybean; 14 DAA, Metamifop 90 gm ai/ha): 0 | Phytotoxicity score (Soybean; 21 DAA, Metamifop 80 gm ai/ha): 0 | Phytotoxicity score (Soybean; 21 DAA, Metamifop 90 gm ai/ha): 0 | % Weed control burn down symptoms generation Observed (Parthenium hysterophorus; 14 DAA, Metamifop 80 gm ai/ha): 0% | % Weed control burn down symptoms generation Observed (Parthenium hysterophorus; 14 DAA, Metamifop 90 gm ai/ha): 0% | % Weed control burn down symptoms generation Observed (Parthenium hysterophorus; 21 DAA, Metamifop 80 gm ai/ha): 0% | % Weed control burn down symptoms generation Observed (Parthenium hysterophorus; 21 DAA, Metamifop 90 gm ai/ha): 0% | % Weed control burn down symptoms generation Observed (Commelina benghalensis; 14 DAA, Metamifop 80 gm ai/ha): 0% | % Weed control burn down symptoms generation Observed (Commelina benghalensis; 14 DAA, Metamifop 90 gm ai/ha): 0% | % Weed control burn down symptoms generation Observed (Commelina benghalensis; 21 DAA, Metamifop 80 gm ai/ha): 0% | % Weed control burn down symptoms generation Observed (Commelina benghalensis; 21 DAA, Metamifop 90 gm ai/ha): 0% | % Weed control burn down symptoms generation Observed (Cyanotis axillaris; 14 DAA, Metamifop 80 gm ai/ha): 0% | % Weed control burn down symptoms generation Observed (Cyanotis axillaris; 14 DAA, Metamifop 90 gm ai/ha): 0% | % Weed control burn down symptoms generation Observed (Cyanotis axillaris; 21 DAA, Metamifop 80 gm ai/ha): 0% | % Weed control burn down symptoms generation Observed (Cyanotis axillaris; 21 DAA, Metamifop 90 gm ai/ha): 0% | % Weed control burn down symptoms generation Observed (Brachiaria eruciformis; 14 DAA, Metamifop 80 gm ai/ha): 84% | % Weed control burn down symptoms generation Observed (Brachiaria eruciformis; 14 DAA, Metamifop 90 gm ai/ha): 88% | % Weed control burn down symptoms generation Observed (Brachiaria eruciformis; 21 DAA, Metamifop 80 gm ai/ha): 78% | % Weed control burn down symptoms generation Observed (Brachiaria eruciformis; 21 DAA, Metamifop 90 gm ai/ha): 81% | % Weed control burn down symptoms generation Observed (Echinochloa crusgalli; 14 DAA, Metamifop 80 gm ai/ha): 80% | % Weed control burn down symptoms generation Observed (Echinochloa crusgalli; 14 DAA, Metamifop 90 gm ai/ha): 83% | % Weed control burn down symptoms generation Observed (Echinochloa crusgalli; 21 DAA, Metamifop 80 gm ai/ha): 74% | % Weed control burn down symptoms generation Observed (Echinochloa crusgalli; 21 DAA, Metamifop 90 gm ai/ha): 77% | % Weed control burn down symptoms generation Observed ([2]; 14 DAA, Metamifop 80 gm ai/ha): 67% | % Weed control burn down symptoms generation Observed ([2]; 14 DAA, Metamifop 90 gm ai/ha): 70% | % Weed control burn down symptoms generation Observed ([2]; 21 DAA, Metamifop 80 gm ai/ha): 70% | % Weed control burn down symptoms generation Observed ([2]; 21 DAA, Metamifop 90 gm ai/ha): 72%
